# Measured values: patent US20240424019A1, “SHP1 MODIFIED DENDRITIC CELLS AND EXTRACELLULAR VESICLES DERIVED THEREFROM AND ASSOCIATED METHODS” (BOARD OF REGENTS, THE UNIVERSITY OF TEXAS SYSTEM, priority 2021, published 2024)
# Experiments:
# [1] = test system: B16-F10 melanoma; details: VitE and ICT combo-treatment
# Experimental: For the melanoma tumor challenges, 2×10^5 B16-F10, B16-GMCSF, or B16-FLT3L cells were subcutaneously (s.c.) injected into the right flank of C57BL/6J mice on day 0.
# Treatments were given as single agents or in combinations with the indicated regimens for each group. VitE (D-α-Tocopherol type VI, Cat.T1539, Sigma-Aldrich) was formulated in the vehicle (10% ethanol in sterile water) and administered by oral gavage once a day at a dose of 50 mg/kg body weight (100 μl at 10 mg/ml per day), corresponding to 400 to 600 mg/day in a human weighing 60 kg, which is within the range of doses recommended for supplement and pharmacological use. VitE treatment was initiated on day 4 ending until the ending point.
# For tumor volume analysis, each tumor was measured every 3-4 days with a digital caliper beginning on day 7 after the challenge. Tumor volume was calculated using the formula V=(L×W^2)/2 and expressed as mm^3, where V is tumor volume, L is the length of the tumor (longer diameter) and W is the width of the tumor (shorter diameter). Mice were monitored for tumor growth and survival. Measurements were assessed manually by assessing the longest dimension (length, L) and the longest perpendicular dimension (width, W). Tumor volume was calculated using the formula: (L×W^2)/2.
# [2] = test system: EMT6 mammary tumors; test: Orthotopic EMT6 mammary tumor model; type: in vivo, mouse
# [3] = test system: OT-1 T cells; test: OT-1 T cell proliferation with OVA-loaded BMDCs; type: cell-based, mouse; details: VitE-treated, OVA-loaded BMDCs vs vehicle, day 3
# Experimental: FIG. 2A: Percentage of human IFN-γ^+CD8^+ T cells in CD8^+ T cells in coculture with vehicle or VitE-treated autologous MoDCs (n=3). FIG. 2B: Representative flow cytometric analysis and quantification of antigen-specific OT-1 T cell proliferation stimulated with OVA-loaded mouse BMDCs that were treated with vehicle or VitE at day 3. FIG. 2C: Tumor growth curves of orthotopic EMT6 tumor-bearing mice treated with vehicle (Ctrl), Vitamin E (VitE), or VitE plus Cyt c (10 mg/kg. i.v, every other day starting on day 3) to deplete DCs (n=8/group). The statistical significance is defined by P-value: *P<0.05, **P<0.01, ***P<0.001. ****P<0.0001.
# FIG. 3A: Volcano plot of reverse phase protein array (RPPA) data of mouse BMDCs treated with VitE (50 μg/ml) compared to those treated with vehicle control with tumor conditioned media (TCM) for 48 hours (n=3 independent samples). […] The grey dashed line indicates P-value of 0.05. FIG. 3B: t-SNEs by CyTOF and quantification comparing the intensity of pY564-SHP1 in TADCs from the vehicle-or VitE-treated EMT6 tumors at day 15 post-implantation. FIG. 3C: Top, SHP1 knockdown in BMDCs was effective. […] Right, quantification of OT-1 T-cell numbers under the indicated condition. FIG. 3D: The binding of VitE to purified SHP1 is analyzed by microscale thermophoresis (MST) binding assay. […]
# [4] = test system: human MoDCs; test: DC activation markers on human MoDCs by flow cytometry; type: cell-based
# Source text: Human leukocyte concentrate (buffy coat) was collected from healthy blood donor volunteers by MD Anderson Blood Donor Center. Written informed consent was obtained from all participating blood donors and the use of anonymized leftover specimens for scientific purposes was approved by the Ethics Committee of the MD Anderson Cancer Center. For the generation of monocyte-derived dendritic cells (MoDCs), peripheral blood of healthy individuals was applied to a Ficoll gradient (BD), and mononuclear cells were freshly isolated and cultured in the dish in a humidified incubator for 1 hour to let monocytes adhere. After removing the medium with non-adherent cells, the adherent monocytes were collected through vigorous pipetting. […]
# We assessed the expression of co-stimulatory molecules on human MoDCs treated with indicated dietary components and nutritional supplements including VitE (50 μg/ml). […] The mean fluorescence intensity (MFI) of each molecule was normalized to the MFI of the vehicle-treated group measured by flow cytometry. We then quantitated DC activation markers CD40, CD86, and HLA-DR on human MoDCs treated with vehicle or VitE (50 μg/ml) for 48 h in the presence of LPS (100 ng/ml), as calculated by relative mean fluorescence intensity (MFI) compared to controls.
smiles,measurement,setting,value
"Cc1c(C)c2c(c(C)c1O)CC[C@@](C)(CCC[C@H](C)CCC[C@H](C)CCCC(C)C)O2 [VitE, D-α-Tocopherol]",therapeutic effect,[1],no therapeutic effect
same,average tumor volume at day 15,"[2]; BALB/c mice, n=10 per group, vehicle-treated 350 mm^3",173 mm^3
same,pY564-SHP1 level in TADCs,"[2]; CyTOF, day 15 post-implantation, VitE vs vehicle",reduced the pY564-SHP1 level in TADCs
same,therapeutic response,[2]; VitE 50 mg/kg and ICT (anti-PD1) combo-treatment,significantly improved therapeutic response
same,tumor growth,[2]; VitE alone vs vehicle-treated group,reduced tumor growth
same,tumor infiltration of immune cells (CyTOF of CD45+ cells),[2]; VitE treatment vs vehicle,increased the tumor infiltrations of CD11c+DCs and CD8+ T cells
same,antigen-specific OT-1 T cells in coculture,[3],increased the OVA-derived SIINFEKL antigen-specific OT-1 T cells in coculture
same,expression of DC activation markers (relative MFI),"[4]; VitE 50 μg/ml 48 h, LPS 100 ng/ml","significantly increased expression of DC activation markers CD40, CD86, HLA-DR"
same,DC activation compared with other common nutritional supplements,"[4]; VitE 50 μg/ml vs VitC, VitD, VitB, VitB2, VitB12, DHA, 48 h then LPS 24 h",most effectively activated DCs
